Assay results as given in ChEMBL document CHEMBL1759970, “Design, synthesis and SAR of novel ethylenediamine and phenylenediamine derivatives as factor Xa inhibitors” (Bioorg Med Chem Lett, 2011).
In brackets after ≈: the same amount, converted by molar mass.

Legend:
physchem [1] = settings: buffer, pH 6.8
Description: Solubility of compound at pH 6.8

physchem [2] = settings: buffer, pH 1.2
Description: Solubility of compound at pH 1.2

Compound | solubility (physchem [1]) [µg/mL] | solubility (physchem [2]) [µg/mL]
CCOC(=O)c1ccc(NC(=O)c2nc3c(s2)CN(C)CC3)c(NC(=O)c2cc3cc(Cl)ccc3[nH]2)c1 | < 1 | 1.1 (≈ 2.04 µM)
CC(Oc1ccc(NC(=O)c2cc3cc(Cl)ccc3[nH]2)c(NC(=O)c2nc3c(s2)CN(C)CC3)c1)C(=O)O (centres undefined) | 825 (≈ 1490 µM) | 256 (≈ 462 µM)
